From ChEMBL document CHEMBL1949564, “Inhibitory activity of eudesmane sesquiterpenes from Alpinia oxyphylla on production of nitric oxide” (Bioorg Med Chem Lett, 2012)
In brackets after ≈: the same amount, converted by molar mass. Residues, ends and D or L forms follow the SMILES beside them. *: point of attachment. Cbz = O=C(OCc1ccccc1)*

Experiments:
RAW264.7 [1] = test: Antiinflammatory activity in mouse RAW264.7 cells assessed as inhibition of LPS-induced NO production after 5 mins by Greiss method; type: functional, cell-based; conditions: RAW264.7, 5 min
RAW264.7 [2] = test: Antiinflammatory activity in mouse RAW264.7 cells assessed as inhibition of IFNgamma-induced NO production after 5 mins by Greiss method; type: functional, cell-based; conditions: RAW264.7, 5 min

SMILES	IC50 (RAW264.7 [1]) [µg/mL]	IC50 (RAW264.7 [2]) [µg/mL]
C=C(C)[C@]1(O)CC[C@@]2(C)CCC(=O)C(C)=C2C1	11.4 (≈ 48.6 µM)	11.4 (≈ 48.6 µM)
C[C@@]12CCC(=O)C=C1[C@@](C)(O)[C@H](O)CC2 [OXYPHYLLENONE A]	12 (≈ 57 µM)	12 (≈ 57 µM)
C=C(C)[C@]1(O)CC[C@@]2(C)CCC(=O)[C@@]3(C)O[C@@]23C1 [OXYPHYLLANENE D]	9.85 (≈ 39.3 µM)	9.85 (≈ 39.3 µM)
CC1=C2C[C@H](C(C)(O)CO)CC[C@@]2(C)CCC1=O (stereo partly drawn)	13.3 (≈ 52.6 µM)	13.3 (≈ 52.6 µM)
CC1=C2C=C(C(C)(O)CO)CC[C@]2(C)CCC1=O (stereo partly drawn) [OXYPHYLLANENE F]	13.9 (≈ 55.7 µM)	13.9 (≈ 55.7 µM)
C=C(C)[C@@H]1CC[C@]2(C)C(=C(C)C(=O)C[C@H]2O)C1 [LIGUCYPERONOL]	12.1 (≈ 51.8 µM)	12.1 (≈ 51.8 µM)
C[C@@]12CCC[C@](C)(O)C1=CC(=O)CC2 [TEUHETENONE A]	12.9 (≈ 66.6 µM)	12.9 (≈ 66.6 µM)
C=C(C)[C@@H]1CC[C@@]2(C)CCC(=O)C(C)=C2[C@@H]1O	12.5 (≈ 53.4 µM)	12.5 (≈ 53.4 µM)
C=C(C)[C@@]1(O)CC[C@]2(C)CC(=O)C=C(C)[C@H]2C1 [TEUCRENONE]	11.4 (≈ 48.5 µM)	11.4 (≈ 48.5 µM)
CC(=O)[C@]12CC[C@@]3(C)CCC(=O)C(C)=C3[C@H]1O2 [OXYPHYLLANENE C]	11 (≈ 47 µM)	11 (≈ 47 µM)
C=C1[C@@H](O)CC[C@]2(C)CC[C@](O)(C(=C)C)C[C@@H]12 (relative stereo)	13.5 (≈ 57.2 µM)	13.5 (≈ 57.2 µM)
CC(C)C[C@@H](C=O)NC(=O)[C@H](CC(C)C)NC(=O)[C@H](CC(C)C)NC(=O)OCc1ccccc1 [MG-132] (Cbz-Leu-Leu-Leu-aldehyde)	0.17 (≈ 0.357 µM)	0.17 (≈ 0.357 µM)
C=C(C)[C@]1(O)CC[C@]2(C)CC(=O)C=C(C)[C@H]2C1	11.6 (≈ 49.6 µM)	11.6 (≈ 49.6 µM)
C=C(C)[C@@H]1CC[C@@]2(C)[C@H](O)CC[C@](C)(O)[C@@H]2C1 (racemic)	13.5 (≈ 56.8 µM)	13.5 (≈ 56.8 µM)
